Assay results as given in US20060063784A1, “Method of using substituted pyrazolo [1,5-a] pyrimidines” (priority 2004, published 2006).
Where two headings read alike, the source gives them in different places.

Test system: 80S14 (p21-deficient) cells
Assay: Cytotoxicity assay using isogenic cell lines: IC50 in 80S14 (p21-deficient) cells, SRB
Format: cell-based, human
Settings: SRB
Method: Cytotoxicity Assay Using Isogenic Cell Lines: • 1. 80S14 (p21-deficient) cells were cultured in RPMI 1640 medium (Gibco/Invitrogen Life technologies) supplemented with 10% fetal bovine serum (FBS, Gibco) and 10 μg/ml gentamycin (Gibco). Cells were maintained at 37° C. under 7% CO2 • 2. Cells were plated at 6×10^4/ml (0.2 ml/well; 12,000 cells/well) in 96-well microtiter plates (Falcon or Corning/Costar) and incubated at 37° C. overnight (18-24 hours). • 3. 2-5 μl of the test agent [200 μg/ml stock in 20% DMSO/20 mM HEPES, pH 7.5 (Gibco)] was added to each well to achieve a final concentration of 2-5 μg/ml. Cells were incubated with the test compounds for 5 days at 37° C. • 4. Surviving cells were fixed with 50 μl 50% trichloroacetic acid (Sigma; 10% final concentration) for 1 hour at 4° C. • 5. Plates were rinsed twice with water (0.3 ml per wash using MRD8 robot), and allowed to dry. • 6. Sulforhodamine B (SRB) (Sigma; 0.4% in 1% acetic acid, 50 μl per well; MRD8 robot) was added and plates kept at room temperature for 10 minutes. • 7. Excess dye was removed by washing with 1% acetic acid (3 times, 0.3 ml per wash; MRD8 robot) and allowed to dry. • 8. The dye was solubilized in Tris base (Sigma; 10 mM, 150 μl per well). Plates were kept at room temperature for 30 minutes to allow the dye to diffuse. • 9. Absorbance was measured at 540 nm. • 10. The percentage of cells surviving drug treatment relative to control wells (no drug) was determined. • 11. The difference in % cell survival between the two cell lines was calculated. • 12. Compounds producing a difference score of >50 were considered to be selective for the p21-deficient cells and were evaluated further: Determination of selectivity of compounds for p21−/− cells: • 1. 80S14 cells were cultured as described above. • 2. Cells were seeded in 96-well microtiter plates at 12,000 cells/well (either 0.15 ml/well of 8×10^4 cells/ml suspension, or 0.2 ml/well of 6×10^4 cells/ml suspension). Plates were incubated at 37° C. overnight (18-24 hours). • 3. Serial dilutions of the test agent were added to each well. Dilutions were prepared either in 40% DMSO/20% methanol/20 mM HEPES, pH 7.5 (Gibco) or directly in growth medium. One of two dose ranges were used: 5 pM to 50 μM or 170 pg/ml to 10 μg/ml. Cells were incubated with the test compounds for 5 days at 37° C. • 4. Surviving cells were fixed with 50 μl 50% trichloroacetic acid (Sigma; 10% final concentration) for 1 hour at 4° C. • 5. Plates were rinsed extensively in water, and allowed to dry. • 6. Sulforhodamine B (Sigma; 0.4% in 1% acetic acid, 70 μl per well) was added and plates kept at room temperature for 10 minutes. • 7. Excess dye was removed by washing 5 times with 1% acetic acid and plates were allowed to dry. • 8. The dye was solubilized in Tris base (Sigma; 10 mM, 150 μl per well). Plates were placed on a titer plate shaker (Lab Line Instruments) for 5 minutes to allow the dye to diffuse. • 9. Absorbance was measured at 560 nm.
10. The drug concentration that inhibits cell proliferation by 50% relative to untreated controls (IC50) was determined from cytotoxicity curves.

[1] = Homo sapiens, 120 h, 80S14 (p21-deficient) cells, 5 days, class symbols, read-out: IC50 for 80S14
[2] = Homo sapiens, 120 h, 80S14 p21-deficient cells, 5 days incubation, read-out: IC50 for 80SI4

Compound	IC50 [1]	IC50 [2]	further results
CC(C)NC(=O)Nc1cccc(-c2ccnc3c(C(=O)c4ccco4)cnn23)c1 [Example 298, N-{3-[3-(2-Furoyl)pyrazolo[1,5-a]pyrimidin-7-yl]phenyl}-N′-isopropylurea]	< 1 µM		
O=C(Nc1cccc(-c2ccnc3c(C(=O)c4cccs4)cnn23)c1)OCCc1ccsc1 [Example 179, 2-thien-3-ylethyl 3-[3-(thien-2-ylcarbonyl)pyrazolo[1,5-a]pyrimidin-7-yl]phenylcarbamate]		1 to 10 µM	
O=C(c1cccs1)c1cnn2c(-c3cccc(NS(=O)(=O)c4ccc(Br)cc4)c3)ccnc12 [Example 35, 4-bromo-N-{3-[3-(thien-2-ylcarbonyl)pyrazolo[1,5-a]pyrimidin-7-yl]phenyl}benzenesulfonamide]		1 to 10 µM	
O=C(c1cccs1)c1cnn2c(-c3cccc(NS(=O)(=O)c4cccs4)c3)ccnc12 [Example 38, N-{3-[3-(thien-2-ylcarbonyl)pyrazolo[1,5-a]pyrimidin-7-yl]phenyl}thiophene-2-sulfonamide]		1 to 10 µM	
CCNc1ccc(-c2ccnc3c(C(=O)c4cccs4)cnn23)cc1 [Example 271, [7-[4-(Ethylamino)phenyl]pyrazolo[1,5-a]pyrimidin-3-yl]-2-thienyl-methanone]	10 to 50 µM		
O=C(c1cccs1)c1cnn2c(-c3cccc(NC(=O)C(Cl)(Cl)Cl)c3)ccnc12 [Example 49, 2,2,2-trichloro-N-{3-[3-(thien-2-ylcarbonyl)pyrazolo[1,5-a]pyrimidin-7-yl]phenyl}acetamide]		1 to 10 µM	
CC(C)NC(=O)c1cccc(-c2ccnc3c(C(=O)c4cccs4)cnn23)c1 [Example 322, N-Isopropyl-3-[3-(2-thienylcarbonyl)pyrazolo[1,5-a]pyrimidin-7-yl]benzamide]	< 1 µM		
N,N′-diethyl-3-[3-(2-thienylcarbonyl)-pyrazolo[1,5-a]pyrimidin-7-yl]-benzamide [Example 248]			IC50 (80S14 (p21-deficient) cells, 5 days, class symbols, read-out: IC50 for 80S14): 10 to 50 µM
Cc1cc(C)cc(-c2cnn3c(-c4cccc(-c5nnn(CCN6CCCCC6)n5)c4)ccnc23)c1 [Example 499, 3-(3,5-Dimethylphenyl)-7-{3-[2-(2-piperidin-1-ylethyl)-2H-tetrazol-5-yl]phenyl}pyrazolo[1,5-a]pyrimidine]	1 to 10 µM		
Nc1cccc(-c2ccnc3c(Br)cnn23)c1 [Example 326, 3-(3-Bromopyrazolo[1,5-a]pyrimidin-7-yl)aniline]	10 to 50 µM		
CCNC(=O)Nc1cccc(-c2ccnc3c(C(=O)c4cccs4)cnn23)c1 [Example 5, N-ethyl-N′-{3-[3-(thien-2-ylcarbonyl)pyrazolo[1,5-a]pyrimidin-7-yl]phenyl}urea]		< 1 µM	
CNc1cccc(-c2ccnc3c(C(=O)c4ccccc4)cnn23)c1 [Example 231, [7-[3-(Methylamino)phenyl]pyrazolo[1,5-a]-pyrimidin-3-yl}phenyl-methanone]	10 to 50 µM		
C#CCC(C)OC(=O)Nc1cccc(-c2ccnc3c(C(=O)c4cccs4)cnn23)c1 (stereo not drawn) [Example 183, 1-methylbut-3-ynyl 3-[3-(thien-2-ylcarbonyl)pyrazolo[1,5-a]pyrimidin-7-yl]phenylcarbamate]		< 1 µM	
Cc1ccc(C(=O)Nc2cccc(-c3ccnc4c(C(=O)c5cccs5)cnn34)c2)cc1 [Example 87, 4-methyl-N-{3-[3-(thien-2-ylcarbonyl)pyrazolo[1,5-a]pyrimidin-7-yl]phenyl]benzamide]		< 1 µM	
CCCCNC(=N)OC(=N)N(CCCC)c1cccc(-c2ccnc3c(C(=O)c4cccs4)cnn23)c1 [Example 292, N,N′-Dibutyl-N-{3-[3-(2-thienylcarbonyl)pyrazolo[1,5-a]pyrimidin-7-yl]phenyl}dicarbonimidic diamide]			IC50 (Homo sapiens, 120 h, 80S14 (p21-deficient) cells, 5 days, numeric value, read-out: IC50 for 80S14): 4.5 µM
CCCCCCOC(=O)NCC(=O)Nc1cccc(-c2ccnc3c(C(=O)c4cccs4)cnn23)c1 [Example 122, hexyl 2-oxo-2-({3-[3-(thien-2-ylcarbonyl)pyrazolo[1,5-a]pyrimidin-7-yl]phenyl}amino)ethylcarbamate]		1 to 10 µM	
CN(C)S(=O)(=O)Nc1cccc(-c2ccnc3c(C(=O)c4cccs4)cnn23)c1 [Example 40, N,N-dimethyl-N′-{3-[3-(thien-2-ylcarbonyl)pyrazolo[1,5-a]pyrimidin-7-yl]phenyl}sulfamide]		1 to 10 µM	
O=C(CNC(=O)C1CCCC1)Nc1cccc(-c2ccnc3c(C(=O)c4cccs4)cnn23)c1 [Example 128, N-[2-oxo-2-({3-[3-(thien-2-ylcarbonyl)pyrazolo[1,5-a]pyrimidin-7-yl]phenyl}amino)ethyl]cyclopentanecarboxamide]		1 to 10 µM	
CCC(CC)C(=O)NCC(=O)Nc1cccc(-c2ccnc3c(C(=O)c4cccs4)cnn23)c1 [Example 131, 2-ethyl-N-[2-oxo-2-({3-[3-(thien-2-ylcarbonyl)pyrazolo[1,5-a]pyrimidin-7-yl]phenyl}amino)ethyl]butanamide]		10 to 50 µM	
COc1cccc(CC(=O)Nc2cccc(-c3ccnc4c(C(=O)c5cccs5)cnn34)c2)c1 [Example 107, 2-(3-methoxyphenyl)-N-{3-[3-(thien-2-ylcarbonyl)pyrazolo[1,5-a]pyrimidin-7-yl]phenyl}acetamide]		< 1 µM	
O=C(CCCl)Nc1cccc(-c2ccnc3c(C(=O)c4cccs4)cnn23)c1 [Example 139, 3-chloro-N-{3-[3-(thien-2-ylcarbonyl)pyrazolo[1,5-a]pyrimidin-7-yl]phenyl}propanamide]		< 1 µM	
CCN(C(=O)C1CC1)c1cccc(-c2ccnc3c(C#N)cnn23)c1 [Example 256, N-[3-(3-Cyanopyrazolo[1,5-a]pyrimidin-7-yl)phenyl]-N-ethyl-cyclopropanecarboxamide]	10 to 50 µM		
CN(C(=O)C1CC1)c1cccc(-c2ccnc3c(C(=O)c4ccccc4)cnn23)c1 [Example 236, N-[3-(3-benzoylpyrazolo[1,5-a]-pyrimidin-7-yl)phenyl]-N-methyl-cyclopropanecarboxamide]	10 to 50 µM		
O=C(Cc1ccc2c(c1)OCO2)Nc1cccc(-c2ccnc3c(C(=O)c4cccs4)cnn23)c1 [Example 69, 2-(1,3-benzodioxol-5-yl)-N-{3-[3-(thien-2-ylcarbonyl)pyrazolo[1,5-a]pyrimidin-7-yl]phenyl}acetamide]		< 1 µM	
CS(=O)(=O)Nc1cccc(-c2ccnc3c(C(=O)c4cccs4)cnn23)c1 [Example 27, N-{3-[3-(thien-2-ylcarbonyl)pyrazolo[1,5-a]pyrimidin-7-yl]phenyl} methanesulfonamide]		1 to 10 µM	
C=C(C)OC(=O)Nc1cccc(-c2ccnc3c(C(=O)c4cccs4)cnn23)c1 [Example 21]			IC50 (80S14 p21-deficient cells, 5 days incubation, read-out: IC50 for 80SI4): < 1 µM
COC(=O)c1cccc(-c2ccnc3c(C(=O)c4cccs4)cnn23)c1 [Example 306, Methyl 3-[3-(2-thienylcarbonyl)pyrazolo[1,5-a]pyrimidin-7-yl]benzoate]	10 to 50 µM		
COc1ccc(S(=O)(=O)Nc2cccc(-c3ccnc4c(C(=O)c5cccs5)cnn34)c2)cc1 [Example 36, 4-methoxy-N-{3-[3-(thien-2-ylcarbonyl)pyrazolo[1,5-a]pyrimidin-7-yl]phenyl}benzenesulfonamide]		1 to 10 µM	
CC(C)(C)c1ccc(C(=O)Nc2cccc(-c3ccnc4c(C(=O)c5cccs5)cnn34)c2)cc1 [Example 287, 4-(tert-butyl)-N-{3-[3-(2-thienylcarbonyl)pyrazolo[1,5-a]pyrimidin-7-yl]phenyl}benzamide]	10 to 50 µM		
COc1cccc(OC)c1C(=O)Nc1cccc(-c2ccnc3c(C(=O)c4cccs4)cnn23)c1 [Example 101, 2,6-dimethoxy-N-{3-[3-(thien-2-ylcarbonyl)pyrazolo[1,5-a]pyrimidin-7-yl]phenyl}benzamide]		< 1 µM	
